This passage reports Activity and fruit count results from ChEMBL document CHEMBL3044556, “Managing weeds with drip-applied herbicides in tomato” (2008).

Molecules are shown by their SMILES.

What all share (assay type): functional
Assay [1] has as its system Digitaria. As to the kind of experiment: Pre-emergence herbicidal activity against Digitaria spp. in tomato field assessed as number of weeds at 2.28 kg/ha applied through drip lines/backpack-spray on week 3 to 4 before transplanting measured 7 weeks after treatment (reference value: 9 plants/m2).
Assay [2] concerns Amaranthus dubius. As to the kind of experiment: Pre-emergence herbicidal activity against Amaranthus dubius in tomato field assessed as number of weeds at 2.28 kg/ha applied through drip lines/backpack-spray on week 3 to 4 before transplanting measured 7 weeks after treatment (reference value: 9 plants/m2).
Assay [3] has as its system Echinochloa colona. The assay is described as follows: Pre-emergence herbicidal activity against Echinochloa colona in tomato field assessed as number of weeds at 2.28 kg/ha applied through drip lines/backpack-spray on week 3 to 4 before transplanting measured 12 weeks after treatment (reference value: 9 plants/m2).
Assay [4] concerns Eleusine indica. The assay is described as follows: Pre-emergence herbicidal activity against Eleusine indica in tomato field assessed as number of weeds at 2.28 kg/ha applied through drip lines/backpack-spray on week 3 to 4 before transplanting measured 7 weeks after treatment (reference value: 9 plants/m2).
Assay [5] relates to Portulaca oleracea. The assay is described as follows: Pre-emergence herbicidal activity against Portulaca oleracea in tomato field assessed as number of weeds at 2.28 kg/ha applied through drip lines/backpack-spray on week 3 to 4 before transplanting measured 12 weeks after treatment (reference value: 9 plants/m2).
Assay [6] concerns Amaranthus dubius. As to the kind of experiment: Pre-emergence herbicidal activity against Amaranthus dubius in tomato field assessed as number of weeds at 2.28 kg/ha applied through drip lines/backpack-spray on week 3 to 4 before transplanting measured 12 weeks after treatment (reference value: 9 plants/m2).
The test system of assay [7] is Digitaria. As to the kind of experiment: Pre-emergence herbicidal activity against Digitaria spp. in tomato field assessed as number of weeds at 2.28 kg/ha applied through drip lines/backpack-spray on week 3 to 4 before transplanting measured 12 weeks after treatment (reference value: 9 plants/m2).
Assay [8] has as its system Boerhavia erecta. The assay is described as follows: Pre-emergence herbicidal activity against Boerhavia erecta in tomato field assessed as number of weeds at 2.28 kg/ha applied through drip lines/backpack-spray on week 3 to 4 before transplanting measured 12 weeks after treatment (reference value: 9 plants/m2).
In assay [9] the test system is Eleusine indica. The assay is described as follows: Pre-emergence herbicidal activity against Eleusine indica in tomato field assessed as number of weeds at 2.28 kg/ha applied through drip lines/backpack-spray on week 3 to 4 before transplanting measured 12 weeks after treatment (reference value: 9 plants/m2).
For assay [10], the system named is Eleusine indica. As to the kind of experiment: Pre-emergence herbicidal activity against Eleusine indica in tomato field assessed as number of extra-large fruits at 2.28 kg/ha applied through drip lines/backpack-spray on week 3 to 4 before transplanting (reference value: 21.3 x 10 '3 ha). The following applies: pooled result: one value given for 8 cell lines, strains, targets or settings.

Assay [11] deals with Echinochloa colona. As to the kind of experiment: Pre-emergence herbicidal activity against Echinochloa colona in tomato field assessed as number of weeds at 2.28 kg/ha applied through drip lines/backpack-spray on week 3 to 4 before transplanting measured 7 weeks after treatment (reference value: 9 plants/m2).
Assay [12] concerns Poaceae. As to the kind of experiment: Pre-emergence herbicidal activity against Poaceae (grass family) in tomato field assessed as number of weeds at 2.28 kg/ha applied through drip lines/backpack-spray on week 3 to 4 before transplanting measured 7 weeks after treatment (reference value: 6 plants/m2).
Assay [13] relates to Amaranthus dubius. The assay is described as follows: Pre-emergence herbicidal activity against Amaranthus dubius in tomato field assessed as extra-large fruit weight at 2.28 kg/ha applied through drip lines/backpack-spray on week 3 to 4 before transplanting (reference value: 7.3 t/ha). Particulars: pooled result: one value given for 8 cell lines, strains, targets or settings.

Assay [14] deals with Eleusine indica. As to the kind of experiment: Pre-emergence herbicidal activity against Eleusine indica in tomato field assessed as total fruit weight at 2.28 kg/ha applied through drip lines/backpack-spray on week 3 to 4 before transplanting (reference value: 13.7 t/ha). Particulars: pooled result: one value given for 8 cell lines, strains, targets or settings.
Assay [15] deals with Poaceae. As to the kind of experiment: Pre-emergence herbicidal activity against Poaceae (grass family) in tomato field assessed as number of weeds at 2.28 kg/ha applied through drip lines/backpack-spray on week 3 to 4 before transplanting measured 12 weeks after treatment (reference value: 8 plants/m2).
For assay [16], the system named is Portulaca oleracea. The assay is described as follows: Pre-emergence herbicidal activity against Portulaca oleracea in tomato field assessed as number of weeds at 2.28 kg/ha applied through drip lines/backpack-spray on week 3 to 4 before transplanting measured 7 weeks after treatment (reference value: 9 plants/m2).
For assay [17], the system named is Corynandra viscosa. The assay is described as follows: Pre-emergence herbicidal activity against Cleome viscosa in tomato field assessed as number of weeds at 2.28 kg/ha applied through drip lines/backpack-spray on week 3 to 4 before transplanting measured 7 weeks after treatment (reference value: 9 plants/m2).
The subject of assay [18] is Corynandra viscosa. As to the kind of experiment: Pre-emergence herbicidal activity against Cleome viscosa in tomato field assessed as number of weeds at 2.28 kg/ha applied through drip lines/backpack-spray on week 3 to 4 before transplanting measured 12 weeks after treatment (reference value: 9 plants/m2).
Assay [19] has as its system Trianthema. As to the kind of experiment: Pre-emergence herbicidal activity against Trianthema spp. in tomato field assessed as total number of fruits at 2.28 kg/ha applied through drip lines/backpack-spray on week 3 to 4 before transplanting (reference value: 49.5 x 10 '3 ha). Particulars: pooled result: one value given for 8 cell lines, strains, targets or settings.

Assay [20] has as its system Cyperus. The assay is described as follows: Pre-emergence herbicidal activity against Cyperus in tomato field assessed as number of weeds at 2.28 kg/ha applied through drip lines/backpack-spray on week 3 to 4 before transplanting measured 12 weeks after treatment (reference value: 5 plants/m2).
Assay [21] has as its system Boerhavia erecta. The assay is described as follows: Pre-emergence herbicidal activity against Boerhavia erecta in tomato field assessed as number of weeds at 2.28 kg/ha applied through drip lines/backpack-spray on week 3 to 4 before transplanting measured 7 weeks after treatment (reference value: 9 plants/m2).
The subject of assay [22] is Trianthema. As to the kind of experiment: Pre-emergence herbicidal activity against Trianthema spp. in tomato field assessed as number of weeds at 2.28 kg/ha applied through drip lines/backpack-spray on week 3 to 4 before transplanting measured 7 weeks after treatment (reference value: 9 plants/m2).
The subject of assay [23] is Cyperus. The assay is described as follows: Pre-emergence herbicidal activity against Cyperus in tomato field assessed as number of weeds at 2.28 kg/ha applied through drip lines/backpack-spray on week 3 to 4 before transplanting measured 7 weeks after treatment (reference value: 3 plants/m2).
The test system of assay [24] is Trianthema. The assay is described as follows: Pre-emergence herbicidal activity against Trianthema spp. in tomato field assessed as number of weeds at 2.28 kg/ha applied through drip lines/backpack-spray on week 3 to 4 before transplanting measured 12 weeks after treatment (reference value: 9 plants/m2).

In the case of `CCN(CC)C(=O)C(C)Oc1cccc2ccccc12` (centres undefined) [NAPROPAMIDE], the Activity is 4 /m2 with Digitaria [1]; 4 /m2 with Amaranthus dubius [2]; 7 /m2 with Echinochloa colona [3]; 4 /m2 in the assay on Eleusine indica [4]; 7 /m2 in the assay on Portulaca oleracea [5]; 7 /m2 in the assay on Amaranthus dubius [6]. For the same molecule, the Activity with Digitaria [7] is on record as 7 /m2; with Boerhavia erecta [8] it was 7 /m2; with Eleusine indica [9], 7 /m2; in the assay with Echinochloa colona [11] it was 4 /m2; in the assay on Poaceae [12], 1 /m2; in the assay on Amaranthus dubius [13], 9.1 tons/ha. Further, the Activity with Eleusine indica [14] is 16.4 tons/ha; with Poaceae [15], 6 /m2; in the assay with Portulaca oleracea [16] it was 4 /m2; in the assay with Corynandra viscosa [17], 4 /m2; with Corynandra viscosa [18], 7 /m2; in the assay with Trianthema [19], 58.3 10^3 fruits/ha. The Activity in the assay on Cyperus [20] is reported as 9 /m2; in the assay on Boerhavia erecta [21], 4 /m2; in the assay with Trianthema [22] it was 4 /m2; in the assay on Cyperus [23], 6 /m2; with Trianthema [24], 7 /m2. For the same molecule, in the assay with Eleusine indica [10], the fruit count is 26.3 10^3 fruits/ha.
